Like-named read-outs stand apart in the source and are kept apart here.
Columns and labels:
Z-138 cell line = experiment: Z-138 Proliferation Assay (Cell Titer Glo, 5 days); assay type: cell-based; details: Z-138 cells
Source text: [formula] Z-138 Proliferation Assay
Z-138 suspension cells were purchased from ATCC (American Type Culture Collection, Manassas, Va.). RPMI/Glutamax medium, penicillin-streptomycin, heat inactivated fetal bovine serum were purchased from Life Technologies, Grand Island, N.Y., USA. V-bottom polypropylene 384-well plates were purchased from Greiner Bio-One, Monroe, N.C., USA. Cell culture 384-well white opaque plates were purchased from Perkin Elmer, Waltham, Mass., USA. Cell-Titer Glo® was purchased from Promega Corporation, Madison, Wis., USA. SpectraMax M5 plate reader was purchased from Molecular Devices LLC, Sunnyvale, Calif., USA.
Z-138 suspension cells were maintained in growth medium (RPMI 1640 supplemented with 10% v/v heat inactivated fetal bovine serum and cultured at 37° C. under 5% CO2 Under assay conditions, cells were incubated in assay medium (RPMI 1640 supplemented with 10% v/v heat inactivated fetal bovine serum and 100 units/mL penicillin-streptomycin) at 37° C. under 5% CO2.
For the assessment of the effect of compounds on the proliferation of the Z-138 cell line, exponentially growing cells were plated in 384-well white opaque plates at a density of 10,000 cells/ml in a final volume of 50 μl of assay medium. A compound source plate was prepared by performing triplicate nine-point 3-fold serial dilutions in DMSO, beginning at 10 mM (final top concentration of compound in the assay was 20 μM and the DMSO was 0.2%). A 100 nL aliquot from the compound stock plate was added to its respective well in the cell plate. […] After addition of compounds, assay plates were incubated for 5 days at 37° C., 5% CO2, relative humidity >90%.
Cell viability was measured by quantitation of ATP present in the cell cultures, adding 35 μl of Cell Titer Glo® reagent to the cell plates. Luminescence was read in the SpectraMax M5 microplate reader. The concentration of compound inhibiting cell viability by 50% was determined using a 4-parametric fit of the normalized dose response curves.

PRMT5/MEP50 = PRMT5/MEP50 (Homo sapiens (Human), UniProt O14744); experiment: PRMT5 Biochemical Assay (PRMT5/MEP50 enzyme assay on peptide substrate, 3H-SAM Flashplate)
Chain of PRMT5/MEP50 (O14744 other isoform, or with tags, fused parts or gaps): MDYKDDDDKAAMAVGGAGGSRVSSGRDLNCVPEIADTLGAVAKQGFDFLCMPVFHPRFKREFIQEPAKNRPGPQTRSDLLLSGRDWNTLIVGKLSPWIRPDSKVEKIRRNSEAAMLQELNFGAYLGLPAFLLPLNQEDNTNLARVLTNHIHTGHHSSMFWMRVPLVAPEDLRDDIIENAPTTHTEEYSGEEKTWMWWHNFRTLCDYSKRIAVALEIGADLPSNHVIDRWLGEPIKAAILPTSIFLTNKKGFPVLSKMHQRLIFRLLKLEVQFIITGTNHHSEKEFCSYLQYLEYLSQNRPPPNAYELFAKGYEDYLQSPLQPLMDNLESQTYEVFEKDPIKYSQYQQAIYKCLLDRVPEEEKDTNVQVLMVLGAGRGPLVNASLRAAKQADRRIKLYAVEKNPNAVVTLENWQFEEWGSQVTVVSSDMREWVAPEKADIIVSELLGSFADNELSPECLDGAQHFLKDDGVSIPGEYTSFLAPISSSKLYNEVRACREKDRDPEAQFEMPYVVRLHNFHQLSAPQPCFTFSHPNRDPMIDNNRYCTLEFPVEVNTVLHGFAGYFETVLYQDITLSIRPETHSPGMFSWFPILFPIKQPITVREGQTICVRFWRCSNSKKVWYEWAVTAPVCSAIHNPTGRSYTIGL
Chain of PRMT5/MEP50 (Q9BQA1 other isoform, or with tags, fused parts or gaps partner): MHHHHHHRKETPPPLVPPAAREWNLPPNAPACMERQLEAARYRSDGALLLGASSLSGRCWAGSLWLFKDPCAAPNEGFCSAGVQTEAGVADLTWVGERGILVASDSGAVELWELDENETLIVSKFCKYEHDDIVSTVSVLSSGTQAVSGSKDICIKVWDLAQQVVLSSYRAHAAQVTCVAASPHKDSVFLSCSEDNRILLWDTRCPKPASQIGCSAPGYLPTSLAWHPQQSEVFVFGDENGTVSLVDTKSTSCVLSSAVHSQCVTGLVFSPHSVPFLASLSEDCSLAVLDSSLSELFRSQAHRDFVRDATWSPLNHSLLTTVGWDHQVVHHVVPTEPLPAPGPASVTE

[1] = system: symmetric di-methyl arginine in Z-138 cells; experiment: Z-138 Methylation Assay (In Cell Western for symmetric di-methyl arginine and DNA content); assay type: cell-based; details: read-out: ICW EC50
Source text: [formula] Where top and bottom are the normally allowed to float, but may be fixed at 100 or 0 respectively in a 3-parameter fit. The Hill Coefficient normally allowed to float but may also be fixed at 1 in a 3-parameter fit. Y is the % inhibition and X is the compound concentration. Z-138 Methylation Assay
Z-138 suspension cells were purchased from ATCC (American Type Culture Collection, Manassas, Va.). RPMI/Glutamax medium, penicillin-streptomycin, heat inactivated fetal bovine serum, and D-PBS were purchased from Life Technologies, Grand Island, N.Y., USA. Odyssey blocking buffer, 800CW goat anti-rabbit IgG (H+L) antibody, and Licor Odyssey infrared scanner were purchased from Licor Biosciences, Lincoln, Nebr., USA. Symmetric di-methyl arginine antibody was purchased from EMD Millipore, Billerica, Mass., USA. 16% Paraformaldehyde was purchased from Electron Microscopy Sciences, Hatfield, Pa., USA.
Z-138 suspension cells were maintained in growth medium (RPMI 1640 supplemented with 10% v/v heat inactivated fetal bovine serum and 100 units/mL penicillin-streptomycin) and cultured at 37° C. under 5% CO2.
Cell Treatment, in Cell Western (ICW) for Detection of Symmetric Di-Methyl Arginine and DNA Content.
Z-138 cells were seeded in assay medium at a concentration of 50,000 cells per mL to a 384-well cell culture plate with 50 μL per well. Compound (100 nL) from 384 well source plates was added directly to 384 well cell plate. Plates were incubated at 37° C., 5% CO2 for 96 hours. After four days of incubation, 40 μL of cells from incubated plates were added to poly-D-lysine coated 384 well culture plates (BD Biosciences 356697). Plates were incubated at room temperature for 30 minutes then incubated at 37° C., 5% CO2 for 5 hours. After the incubation, 40 μL per well of 8% paraformaldehyde in PBS (16% paraformaldahyde was diluted to 8% in PBS) was added to each plate and incubated for 30 minutes. Plates were transferred to a Biotek 405 plate washer and washed 5 times with 100 μL per well of wash buffer (1×PBS with 0.1% Triton X-100 (v/v)). Next 30 μL per well of Odyssey blocking buffer were added to each plate and incubated 1 hour at room temperature. Blocking buffer was removed and 20 μL per well of primary antibody was added (symmetric di-methyl arginine diluted 1:100 in Odyssey buffer with 0.1% Tween 20 (v/v)) and plates were incubated overnight (16 hours) at 4° C. Plates were washed 5 times with 100 μL per well of wash buffer. Next 20 μL per well of secondary antibody was added (1:200 800CW goat anti-rabbit IgG (H+L) antibody, 1:1000 DRAQ5 (Biostatus limited) in Odyssey buffer with 0.1% Tween 20 (v/v)) and incubated for 1 hour at room temperature. The plates were washed 5 times with 100 μL per well wash buffer then 1 time with 100 μL per well of water. Plates were allowed to dry at room temperature then imaged on the Licor Odyssey machine which measures integrated intensity at 700 nm and 800 nm wavelengths. Both 700 and 800 channels were scanned.
First, the ratio for each well was determined by:
Each plate included fourteen control wells of DMSO only treatment (minimum inhibition) as well as fourteen control wells for maximum inhibition treated with 3 μM of a reference compound (Background wells). The average of the ratio values for each control type was calculated and used to determine the percent inhibition for each test well in the plate. Reference compound was serially diluted three-fold in DMSO for a total of nine test concentrations, beginning at 3 μM. Percent inhibition was determined and IC50 curves were generated using triplicate wells per concentration of compound. […]

[2] = PRMT5 biochemical assay, read-out: Biochemical IC50
[3] = Homo sapiens, Z-138, Z-138 cells

Molecule	EC50 (Z-138 cell line; Homo sapiens, Z-138, 120 h) [µM]	IC50 (PRMT5/MEP50; [2]) [µM]	EC50 [1, 3] [µM]	EC50 (Z-138 cell line) [µM]	EC50 ([1]; Z-138 cells) [µM]	IC50 (PRMT5/MEP50) [µM]
CN(CCN)S(=O)(=O)c1ccccc1OCC(=O)NC[C@@H](O)CN1CCc2ccccc2C1 [Compound 198]	> 20	< 0.1	> 1			
O=C(CCc1nc2cc(Cl)ccc2[nH]1)NC[C@H](O)CN1CCc2ccccc2C1 [Compound 226]	0.101 to 1	< 0.1	< 0.1			
O=C(COc1ccccc1[C@@H]1CCCNC1)NC[C@H](O)CN1CCc2ccccc2C1 [Compound 262]	10 to 50	< 0.1	0.101 to 1			
CN1CCCC(c2c(CS(C)(=O)=O)cccc2OCC(=O)NC[C@@H](O)CN2CCc3ccccc3C2)C1 (stereo partly drawn) [Compound 247]	> 20	0.101 to 1	> 1			
O=C(COc1cccc(N2CCNCC2)c1)NC[C@@H](O)CN1CCc2ccccc2C1 [Compound 197]	10 to 50	< 0.1	0.101 to 1			
NC1CN(S(=O)(=O)c2ccccc2OCC(=O)NC[C@@H](O)CN2CCc3ccccc3C2)CC1O (stereo partly drawn) [Compound 215]	> 20	< 0.1	> 1			
CN1CCCCC1c1ccccc1OCC(=O)NCC(O)CN1CCc2ccccc2C1 (stereo not drawn) [Compound 258]	1 to 10	0.101 to 1	0.101 to 1			
N-(3-(3,4-dihydroisoquinolin-2(1H)-yl)-2-hydroxypropyl)-2-((1-(1-methylpiperidin-4-yl)-1H-indazol-5-yl)oxy)acetamide [Compound 71]		< 0.1		> 20	0.101 to 1	
O=C(CCc1nc2ccccc2o1)NC[C@@H](O)CN1CCc2ccccc2C1 [Compound 200]	> 20	1 to 10	> 1			
O=C(COc1ccccc1[C@@H]1CCCCN1)NC[C@@H](O)CN1CCc2ccccc2C1 [Compound 236]	10 to 50	0.101 to 1	> 1			
[2H]C1([2H])Cc2ccccc2C([2H])([2H])N1C[C@H](O)CNC(=O)COc1cccc2cccnc12 [Compound 269]	> 5		0.101 to 1			0.101 to 1
CC(C)N1CCCC(c2c(NS(C)(=O)=O)cccc2OCC(=O)NC[C@@H](O)CN2CCc3ccccc3C2)C1 (stereo partly drawn) [Compound 266]	> 20	0.101 to 1	> 1			
CC(=O)Nc1cccc(OCC(=O)NC[C@@H](O)CN2CCc3ccccc3C2)c1C1CCCNC1 (stereo partly drawn) [Compound 199]	> 20	1 to 10	> 1			
O=C(COc1ccccc1C1CCCCN1)NC[C@H](O)CN1CCc2ccccc2C1 (stereo partly drawn) [Compound 253]	10 to 50	< 0.1	0.101 to 1			
Cn1ccnc1CCC(=O)NC[C@H](O)CN1CCc2ccccc2C1 [Compound 259]	> 20	0.101 to 1	0.101 to 1			
CC(Oc1ccccc1[C@H]1CCCNC1)C(=O)NC[C@@H](O)CN1CCc2ccccc2C1 (stereo partly drawn) [Compound 205]	10 to 50	1 to 10	> 1			
Cn1ccnc1CCNC(=O)c1cccc(OCC(=O)NC[C@@H](O)CN2CCc3ccccc3C2)c1 [Compound 245]	> 20	0.101 to 1	> 1			
Cn1cc(-c2ccccc2)nc1CCC(=O)NC[C@H](O)CN1CCc2ccccc2C1 [Compound 256]	> 20	0.101 to 1	0.101 to 1			
Cn1cnc(-c2cccc(OCC(=O)NC[C@@H](O)CN3CCc4ccccc4C3)c2)c1 [Compound 234]	> 20	0.101 to 1	> 1			
O=C(CCc1nc2cc(Cl)ccc2[nH]1)NC[C@@H](O)CN1CCc2ccccc2C1 [Compound 208]	10 to 50	0.101 to 1	0.101 to 1			
CC1CN(C)CCN1S(=O)(=O)c1ccccc1OCC(=O)NC[C@@H](O)CN1CCc2ccccc2C1 (stereo partly drawn) [Compound 203]	> 20	0.101 to 1	0.101 to 1			
CC(Oc1ccccc1[C@@H]1CCCNC1)C(=O)NC[C@@H](O)CN1CCc2ccccc2C1 (stereo partly drawn) [Compound 204]	10 to 50	0.101 to 1	> 1			
Cn1cncc1CCNC(=O)c1cccc(OCC(=O)NC[C@@H](O)CN2CCc3ccccc3C2)c1 [Compound 231]	> 20	0.101 to 1	> 1			
CN(CC1CCNC1)S(=O)(=O)c1ccccc1OCC(=O)NC[C@@H](O)CN1CCc2ccccc2C1 (stereo partly drawn) [Compound 220]		< 0.1		10 to 50	0.101 to 1	
CC1CN(c2cccc(OCC(=O)NC[C@@H](O)CN3CCc4ccccc4C3)c2S(=O)(=O)N(C)C)CCN1 (stereo partly drawn) [Compound 276]	< 0.1	< 0.1	< 0.1			
CN(CCN1CCCCC1)S(=O)(=O)c1ccccc1OCC(=O)NC[C@@H](O)CN1CCc2ccccc2C1 [Compound 214]	0.101 to 1	< 0.1	< 0.1			
CN1CC[C@H](CN(C)S(=O)(=O)c2ccccc2OCC(=O)NC[C@@H](O)CN2CCc3ccccc3C2)C1 [Compound 274]	0.101 to 1	< 0.1	< 0.1			
COCCNCCNC(=O)c1cccc(OCC(=O)NC[C@@H](O)CN2CCc3ccccc3C2)c1 [Compound 244]	> 20	< 0.1	> 1			
